According to patent US5789434A, “Derivatives of substituted 4-biarylbutyric acid as matrix metalloprotease inhibitors” (priority 1995, dated 1998):

Assays:
Assay type in all cases: biochemical
MMP-2 = biological target: T1, MMP-2 (Homo sapiens, UniProt P08253); assay: Automated MMP Profiling Assay, MMP-2 fluorogenic; details: for IC50: 96-well automated, P218, read-out: MMP-2 Fluorogenic IC50 (profiling)
T1 sequence (P08253 110-660): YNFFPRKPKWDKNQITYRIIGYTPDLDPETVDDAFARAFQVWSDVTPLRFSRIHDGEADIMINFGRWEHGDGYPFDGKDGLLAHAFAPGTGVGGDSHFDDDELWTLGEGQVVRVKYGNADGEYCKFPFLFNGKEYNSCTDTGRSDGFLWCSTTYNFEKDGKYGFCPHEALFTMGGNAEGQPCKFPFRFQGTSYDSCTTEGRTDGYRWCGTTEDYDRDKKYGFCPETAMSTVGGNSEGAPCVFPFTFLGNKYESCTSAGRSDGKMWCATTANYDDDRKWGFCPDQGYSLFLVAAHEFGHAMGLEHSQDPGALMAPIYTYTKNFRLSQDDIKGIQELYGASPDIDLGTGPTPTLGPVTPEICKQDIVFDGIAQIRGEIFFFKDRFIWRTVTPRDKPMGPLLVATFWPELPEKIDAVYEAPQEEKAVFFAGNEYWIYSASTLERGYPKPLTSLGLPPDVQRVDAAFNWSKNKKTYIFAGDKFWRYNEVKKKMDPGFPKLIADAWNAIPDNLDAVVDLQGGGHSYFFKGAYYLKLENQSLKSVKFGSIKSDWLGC

MMP-3 = biological target: T2, MMP-3 (Homo sapiens, UniProt P08254); assay: Automated MMP Profiling Assay, MMP-3 fluorogenic; details: for IC50: 96-well automated, P218
T2 construct: Truncated Prostromelysin-257 was expressed in a soluble form in E.coli; made in house; host or cells: E. coli
T2 sequence (P08254 100-274 limits assumed): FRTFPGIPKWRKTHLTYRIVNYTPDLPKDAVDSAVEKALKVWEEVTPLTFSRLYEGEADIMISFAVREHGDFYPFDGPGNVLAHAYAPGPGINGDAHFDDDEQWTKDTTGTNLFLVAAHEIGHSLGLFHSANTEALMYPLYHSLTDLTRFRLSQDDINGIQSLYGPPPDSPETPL
From the text: This assay with each invention compound was run with the three enzymes MMP-3, MMP-9 and MMP-2 in parallel as adapted for a 96-well microtitre plate using a Hamilton A® workstation.

MMP-9 = biological target: T3, MMP-9 (Homo sapiens, UniProt P14780); assay: Automated MMP Profiling Assay, MMP-9 fluorogenic; details: for IC50: 96-well automated, P218
T3 construct: from tissue; host or cells: human polymorphonuclear leukocytes (PMN) from whole blood (New York Blood Center), PMA-stimulated supernatant
T3 sequence (P14780 107-707 limits assumed): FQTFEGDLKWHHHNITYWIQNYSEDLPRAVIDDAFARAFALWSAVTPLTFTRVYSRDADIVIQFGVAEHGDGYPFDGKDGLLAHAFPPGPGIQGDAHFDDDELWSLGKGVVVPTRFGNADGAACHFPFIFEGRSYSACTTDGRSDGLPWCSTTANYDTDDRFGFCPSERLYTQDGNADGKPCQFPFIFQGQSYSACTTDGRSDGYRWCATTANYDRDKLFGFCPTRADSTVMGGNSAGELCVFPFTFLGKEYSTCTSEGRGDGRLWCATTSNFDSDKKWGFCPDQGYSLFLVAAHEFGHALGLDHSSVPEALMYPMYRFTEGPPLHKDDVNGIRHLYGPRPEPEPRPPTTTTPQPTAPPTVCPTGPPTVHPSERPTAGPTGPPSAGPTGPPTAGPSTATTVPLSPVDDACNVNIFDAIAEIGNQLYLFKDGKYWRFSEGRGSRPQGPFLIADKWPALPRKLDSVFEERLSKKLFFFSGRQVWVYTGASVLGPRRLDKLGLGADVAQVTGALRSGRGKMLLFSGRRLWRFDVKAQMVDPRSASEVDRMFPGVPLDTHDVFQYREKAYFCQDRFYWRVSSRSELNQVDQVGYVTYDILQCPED
Description: Briefly, polymorphonuclear leukocytes (PMN) preparations were isolated as described above from 3 or more units of freshly drawn whole blood obtained from the New York Blood Center (New York, N.Y.). Cells were resuspended in phosphate buffered saline (PBS) containing 100 ng/ml phorbol myristate acetate (PMA) in the presence of 50 mM diisopropylfluorophospate (DFP), 1 μg/ml leupeptin and aprotinin, and 1 mg/ml catalase for 1 hr at 37° C. Supernatants were collected by centrifugation (300×g) and the samples were frozen at -70° C. All chromatographic methods were performed at 4° C. Thawed samples were concentrated 5-fold using an Amicon chamber equipped with a YM-10 membrane. The concentrate was pressure dialyzed against 0.02M Tris-HCl, 0.1M NaCl, 1 mM CaCl2, 1 μM ZnCl2, 0.001% Brij-35, 0.02% sodium azide (NaN3), pH 7.5 and applied to DEAE ion exchange chromatography resin which was previously equilibrated with the same buffer at a flow rate of 0.4 ml/min. The column was extensively washed with the same buffer and gelatinase was eluted as 4 ml fractions from the column with 0.02M Tris-HCl, 0.5M NaCl, 1 mM CaCl2, 1 μM ZnCl2, 0.001% Brij-35, 0.02% NaN3, pH 7.5. Gelatinase containing fractions were observed by gelatin zymography (see below), loaded onto a gelatin agarose affinity resin and washed with the same buffer. Gelatinase activity was eluted at a flow rate of 1 ml/min from the column as 1 ml fractions with 0.02M Tris-HCl, 1M NaCl, 1 mM CaCl2, 1 μM ZnCl2, 0.001% Brij-35, 0.02% NaN3, pH 7.5 containing 10% dimethyl sulfoxide (DMSO). The fractions containing gelatinase activity were pooled and dialyzed against 0.005M Tris-HCl, 5 mM NaCl, 0.5 mM CaCl2, 0.1 μM ZnCl2, 0.001% Brij-35, pH 7.4. The protein content associated with material was determined with a micro-BCA assay (Pierce, Rockford, Ill.), lyophilized and reconstituted to a desired working concentration (100 μg/ml).
This assay was run with a protocol analogous to that reported for MMP-3 inhibition using the synthetic peptide P218 and each of the three enzymes and measuring quenched fluorescence. This assay with each invention compound was run with the three enzymes MMP-3, MMP-9 and MMP-2 in parallel as adapted for a 96-well microtitre plate using a Hamilton A® workstation.

| SMILES | IC50 (MMP-2) [nM] | IC50 (MMP-3) [nM] | IC50 (MMP-9) [nM] | inhibition at 5 µM (MMP-3) [%] | inhibition at 5 µM (MMP-9) [%] | inhibition at 5 µM (MMP-2) [%] |
| --- | --- | --- | --- | --- | --- | --- |
| COC(=O)c1ccccc1SC[C@@H]1CC[C@H](C(=O)c2ccc(-c3ccc(Cl)cc3)cc2)[C@H]1C(=O)O (relative stereo) [Example 376, Benzoic acid, 2-[[[2-carboxy-3-[(4'-chloro[1,1'-biphenyl]-4-yl)carbonyl]cyclopentyl]methyl]thio]-, 1-methyl ester, (1α,2β,3α)0] | 34 | 46 | 95 | – | – | – |
| Cc1cccc(C(=O)OC[C@@H]2CC[C@H](C(=O)c3ccc(-c4ccc(Cl)cc4)cc3)[C@H]2C(=O)O)c1 (relative stereo) [Example 379, Benzoic acid, 3-methyl-, [2-carboxy-3-[(4'-chloro[1,1'-biphenyl]-4-yl)carbonyl]cyclopentyl]methyl ester, (1α,2β,3α)-] | 92 | 63 | 48 | – | – | – |
| COC(=O)c1ccccc1S[C@@H]1CC[C@@H](C(=O)c2ccc(-c3ccc(Cl)cc3)cc2)[C@@H]1C(=O)O [Example 300, (1R,2R,5R)-trans-5-[4-(4-chlorophenyl)phenylcarbonyl]-cis-2-(2-methoxycarbonylphenylthio)cyclopentanecarboxylic acid] | 2500 | > 1250 | > 1250 | – | – | – |
| CCCCCOc1ccc(-c2ccc(C(=O)[C@@H]3CC[C@H](Cc4ccccc4)[C@H]3C(=O)O)cc2)cc1 [Example 325, Cyclopentanecarboxylic acid, 2-[[4'-(pentyloxy)[1,1'-biphenyl]-4-yl]carbonyl]-5-(phenylmethyl)-, [1R-(1α,2β,5β)]-] | 4400 | – | – | 10 | 0 | – |
| COc1ccc(COc2ccc(-c3ccc(C(=O)CC(CCCc4ccccc4)C(=O)O)cc3)cc2)cc1 (stereo not drawn) [Example 105, [1,1'-Biphenyl]-4-butanoic acid, 4'-[(4-methoxyphenyl)methoxy]-γ-oxo-α-(3-phenylpropyl)-] | 14 | 33 | – | – | 37 | – |
| O=C(C[C@H](CS(=O)(=O)c1ccccc1)C(=O)O)c1ccc(-c2ccc(Cl)cc2)cc1 [Example 314, [1,1'-Biphenyl]-4-butanoic acid, 4'-chloro-γ-oxo-α-[(phenylsulfonyl)methyl]-, (S)-] | 13 | 399 | 555 | – | – | – |
| O=C(O)[C@H]1[C@H](CSc2nc3ccccc3s2)CC[C@@H]1C(=O)c1ccc(-c2ccc(Cl)cc2)cc1 (relative stereo) [Example 375, Cyclopentanecarboxylic acid, 2-[(2-benzothiazolylthio)methyl]-5-[(4'-chloro[1,1'-biphenyl]-4-yl)carbonyl]-, (1α,2β,5β)-] | 68 | 116 | 146 | – | – | – |
| O=C(CC(CCN1C(=O)c2cccc3cccc(c23)C1=O)C(=O)O)c1ccc(-c2ccc(Cl)cc2)cc1 (stereo not drawn) [Example 410, 1H-Benz[de]isoquinoline-2(3H)-butanoic acid, α-[2-(4'-chloro[1,1'-biphenyl]-4-yl)-2-oxoethyl]-1,3-dioxo-] | 80 | 104 | 44 | – | – | – |
| CCCCCOc1ccc(-c2ccc(C(=O)CC(CCc3cccc(C(=O)N(CC)CC)c3)C(=O)O)cc2)cc1 (stereo not drawn) [Example 164, [1,1'-Biphenyl]-4-butanoic acid, α-[2-[3-[(diethylamino)carbonyl]phenyl]ethyl]-γ-oxo-4'-(pentyloxy)-] | 3.9 | 30 | 82 | – | – | – |
| O=C(CC(CCN1C(=O)c2cccc(OCc3ccccc3)c2C1=O)C(=O)O)c1ccc(-c2ccc(Cl)cc2)cc1 (stereo not drawn) [Example 407, 2H-Isoindole-2-butanoic acid, α-[2-(4'-chloro[1,1'-biphenyl]-4-yl)-2-oxoethyl]-1,3-dihydro-1,3-dioxo-4-(phenylmethoxy)-] | 39 | 69 | 36 | – | – | – |
| CCCCCCc1ccc(-c2ccc(CCC(CCCc3ccccc3)C(=O)O)cc2)cc1 (stereo not drawn) [Example 357, [1,1'-Biphenyl]-4-butanoic acid, 4'-hexyl-α-(3-phenylpropyl)-] | – | – | – | 15 | 4 | 38 |
| CCN(CC)C(=O)c1cccc(SCC(CC(=O)c2ccc(-c3ccc(Cl)cc3)cc2)C(=O)O)c1 (stereo not drawn) [Example 435, [1,1'-Biphenyl]-4-butanoic acid, 4'-chloro-α-[[[3-[(diethylamino)carbonyl]phenyl]thio]methyl]-γ-oxo-] | 8.1 | 39 | 107 | – | – | – |
| O=C(c1ccc(-c2ccc(Cl)cc2)cc1)[C@H]1CCN(C(=O)Nc2ccccc2)[C@@H]1C(=O)O [Example 173, L-Proline, 3-[(4'-chloro[1,1'-biphenyl]-4-yl)carbonyl]-1-[(phenylamino)carbonyl]-, trans-] | 104 | 119 | 814 | – | – | – |
| CCCCNC(=O)c1cccc(CCC(CC(=O)c2ccc(-c3ccc(Cl)cc3)cc2)C(=O)O)c1 (stereo not drawn) [Example 150, [1,1'-Biphenyl]-4-butanoic acid, α-[2-[3-[(butylamino)carbonyl]phenyl]ethyl]-4'-chloro-γ-oxo-] | 201 | 371 | 957 | – | – | – |
| O=C(CC(CCCc1ccccc1)C(=O)O)c1ccc(-c2ccc(OCc3ccc(F)cc3)cc2)cc1 (stereo not drawn) [Example 107, [1,1'-Biphenyl]-4-butanoic acid, 4'-[(4-fluorophenyl)methoxy]-γ-oxo-α-(3-phenylpropyl)-] | 16 | 32 | – | – | 34 | – |
| O=C(O)c1ccc(COc2ccc(-c3ccc(C(=O)CC(CCCc4ccccc4)C(=O)O)cc3)cc2)cc1 (stereo not drawn) [Example 113] | 44 | 28 | 1330 | – | – | – |
| Cc1cccc(C)c1SCC(CC(=O)c1ccc(-c2ccc(Cl)cc2)cc1)C(=O)O (stereo not drawn) [Example 433, [1,1'-Biphenyl]-4-butanoic acid, 4'-chloro-α-[[(2,6-dimethylphenyl)thio]methyl]-γ-oxo-] | 6.2 | 103 | 130 | – | – | – |
| CC(C)CCOc1ccc(-c2ccc(C(=O)CC(CCCc3ccccc3)C(=O)O)cc2)cc1 (stereo not drawn) [Example 96, [1,1'-Biphenyl]-4-butanoic acid, 4'-(3-methylbutoxy)-γ-oxo-α-(3-phenylpropyl)-] | 72 | 232 | > 1250 | – | – | – |
| CC(C)(C)OC(=O)Nc1ccc(-c2ccc(C(=O)CC(CCc3ccccc3)C(=O)O)cc2)cc1 (stereo not drawn) [Example 138, [1,1'-Biphenyl]-4-butanoic acid, 4'-[[(1,1-dimethylethoxy)carbonyl]amino]-γ-oxo-α-(2-phenylethyl)-] | 665 | 905 | – | – | 0 | – |
| O=C(O)c1ccccc1S[C@H]1CC[C@H](C(=O)c2ccc(-c3ccc(Cl)cc3)cc2)[C@H]1C(=O)O (relative stereo) [Example 301, Benzoic acid, 2-[[2-carboxy-3-[(4'-chloro[1,1'-biphenyl]-4-yl)carbonyl]cyclopentyl]thio]-, [1S-(1α,2α,3β)]-] | 18 | 30 | 290 | – | – | – |
| CCCCCOc1ccc(-c2ccc(C(=O)C[C@@H](CCCc3ccccc3)C(=O)O)cc2)cc1 [Example 87, 4-[4-(4-pentyloxyphenyl)phenyl]-4-oxo-2R-(3-phenylpropyl)butanoic acid] | – | – | – | 8 | 0 | 40 |
